Where a name gives a salt, the structure may show the parent alone. Read-outs that look alike come from different tables or passages of the source.
Experiments:
[1] = Apparent permeability across Caco-2 monolayer (BA and AB); type: in vitro ADME; details: human, 120 min, HBSS pH 7.4; for Papp A→B at 120 min, 100 µM: Apical-to-Basolateral; for Papp B→A at 120 min, 100 µM: Basolateral-to-Apical
Method: (§1) Permeability experiments. Details for permeability experiments. Preparation of Caco‐2 monolayer. This procedure has been previously reported by Colabufo et al.[65] Briefly, Caco‐2 cells were harvested with trypsin‐EDTA and seeded onto MultiScreen Caco‐2 assay system at a density of 10,000 cells per well. The culture medium was replaced every 48 h for the first 6 days and every 24 h thereafter. After 21 days in culture, the Caco‐2 monolayer was utilized for the permeability experiments. The Trans Epithelial Electrical Resistance (TEER) of the monolayers was measured daily before and after the experiment using an epithelial voltohmmeter (Millicell®‐ERS; Millipore, Billerica, MA). […] Drug transport experiment. […] Drugs were dissolved in Hanks’ balanced salt solution (HBSS, pH 7.4) and sterile filtered. After 21 days of cell growth, the medium was removed from filter wells and from the receiver plate. The wells were filled with 75 μL of fresh HBSS buffer and the receiver plate with 250 μL per well of the same buffer. This procedure was repeated twice, and the plates were incubated at 37 °C for 30 min. After incubation, the HBSS buffer was removed and drug solutions added to the filter well (75 μL). HBSS without the drug was added to the receiver plate (250 μL). The plates were incubated at 37 °C for 120 min. After incubation, samples were removed from the apical (filter well) and basolateral (receiver plate) sides of the monolayer and stored at −20 °C up to analysis. Compounds were lyophilized at −52 °C and 0.06 bars for 24 h and desalted by adding 500 μL of CH3CN (in order to remove phosphate salts coming from HBSS), then 500 μL of Ammonium Acetate (50 mM, pH 5) were added. The resulting solutions were analyzed by ESI‐MS in order to determine the concentration of drug in the samples. The concentration of tested compounds was measured using UV spectroscopy. The apparent permeability (P app), in units of nm per second, was calculated using the following equation: […]
(§2) where V A is the volume (in mL) in the acceptor well; Area is the surface area of the membrane (0.11 cm^2 of the well); time is the total transport time in seconds (7200 s); [drug]acceptor is the concentration of the drug measured by ESI‐MS analyses or UV spectroscopy; [drug]initial is the initial drug concentration (1 ⋅ 10^−4 M) in the apical or basolateral wells.

hNav1.4 [2] = target: T1, hNav1.4 (Homo sapiens, UniProt P35499); details: cited from earlier work
T1 sequence (P35499 whole entry): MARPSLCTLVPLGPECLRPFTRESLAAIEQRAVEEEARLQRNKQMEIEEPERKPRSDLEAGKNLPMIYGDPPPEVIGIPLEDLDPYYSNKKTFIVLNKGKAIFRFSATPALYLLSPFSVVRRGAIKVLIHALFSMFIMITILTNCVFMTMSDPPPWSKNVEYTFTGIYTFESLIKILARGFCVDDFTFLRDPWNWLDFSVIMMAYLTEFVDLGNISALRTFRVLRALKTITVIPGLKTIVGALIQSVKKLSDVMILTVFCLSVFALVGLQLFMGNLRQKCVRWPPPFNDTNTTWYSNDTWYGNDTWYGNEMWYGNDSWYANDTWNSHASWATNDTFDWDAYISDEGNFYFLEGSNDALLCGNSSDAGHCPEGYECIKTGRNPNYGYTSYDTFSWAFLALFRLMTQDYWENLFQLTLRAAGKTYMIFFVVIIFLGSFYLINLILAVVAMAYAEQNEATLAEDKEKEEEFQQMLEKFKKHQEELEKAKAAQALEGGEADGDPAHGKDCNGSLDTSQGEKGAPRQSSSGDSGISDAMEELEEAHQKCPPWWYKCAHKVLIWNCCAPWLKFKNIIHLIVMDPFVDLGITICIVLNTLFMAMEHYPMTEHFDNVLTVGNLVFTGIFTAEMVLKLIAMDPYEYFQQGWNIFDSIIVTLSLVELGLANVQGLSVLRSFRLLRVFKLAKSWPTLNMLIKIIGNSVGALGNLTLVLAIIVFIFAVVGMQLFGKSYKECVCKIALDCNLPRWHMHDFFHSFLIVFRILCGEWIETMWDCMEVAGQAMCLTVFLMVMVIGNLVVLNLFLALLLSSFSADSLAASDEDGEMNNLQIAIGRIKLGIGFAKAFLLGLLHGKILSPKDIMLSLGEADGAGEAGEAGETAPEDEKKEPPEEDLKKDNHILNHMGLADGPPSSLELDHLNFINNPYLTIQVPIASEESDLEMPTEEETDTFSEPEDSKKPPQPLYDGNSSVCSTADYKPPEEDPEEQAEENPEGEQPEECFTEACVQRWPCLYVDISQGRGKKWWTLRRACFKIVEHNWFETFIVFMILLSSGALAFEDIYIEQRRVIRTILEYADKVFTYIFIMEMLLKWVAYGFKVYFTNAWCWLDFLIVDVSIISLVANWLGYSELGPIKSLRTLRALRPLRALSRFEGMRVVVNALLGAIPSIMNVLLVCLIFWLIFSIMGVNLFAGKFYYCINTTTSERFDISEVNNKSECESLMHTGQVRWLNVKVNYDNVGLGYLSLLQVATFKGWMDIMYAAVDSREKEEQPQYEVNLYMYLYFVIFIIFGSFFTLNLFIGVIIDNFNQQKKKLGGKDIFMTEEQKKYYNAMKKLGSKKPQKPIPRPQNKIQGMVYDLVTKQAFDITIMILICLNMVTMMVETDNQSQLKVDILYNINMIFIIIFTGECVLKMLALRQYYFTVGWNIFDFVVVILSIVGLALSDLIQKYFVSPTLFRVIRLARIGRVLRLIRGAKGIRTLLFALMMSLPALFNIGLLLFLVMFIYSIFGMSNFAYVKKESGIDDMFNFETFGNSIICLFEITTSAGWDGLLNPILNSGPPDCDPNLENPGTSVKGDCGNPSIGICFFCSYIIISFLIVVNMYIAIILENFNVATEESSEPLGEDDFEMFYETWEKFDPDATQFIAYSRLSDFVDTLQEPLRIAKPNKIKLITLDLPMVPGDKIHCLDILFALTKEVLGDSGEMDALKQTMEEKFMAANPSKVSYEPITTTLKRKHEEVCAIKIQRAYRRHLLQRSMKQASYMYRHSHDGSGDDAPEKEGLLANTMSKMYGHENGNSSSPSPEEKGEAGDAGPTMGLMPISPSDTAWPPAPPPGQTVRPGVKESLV

hNav1.4 [3] = target: T1, hNav1.4; experiment: Patch-clamp block of hNav1.4 sodium currents in HEK293T cells; type: cell-based; details: for IC50: HEK293T cells, value ± standard error of the fit; for TB/PB (ratio IC50 tonic block/IC50 phasic block): use-dependence
Method: Patch clamp experiments. Exploratory compounds were tested on sodium currents recorded in HEK293T cells (human embryonic kidney cell line) permanently expressing the wild‐type human Nav1.4 sodium channel, as previously described.[14, 61] Whole‐cell sodium currents were recorded at room temperature (∼22 °C) using Axon hardware and software (Axon Instruments Inc., Union City, CA, USA). Bath solution contained (mM): 150 NaCl, 4 KCl, 2 CaCl2, 1 MgCl2, 5 HEPES and 5 glucose (pH 7.4). Pipette solution contained (mM): 120 CsF, 10 CsCl, 10 NaCl, 5 EGTA, and 5 HEPES (pH 7.2). Pipette resistance was […]. Stabilization of the whole‐cell configuration was allowed for 5 minutes before to record sodium currents elicited from a holding potential of −120 mV using 25 ms‐long test pulses at −30 mV applied every 10 or 0.1 sec (0.1 and 10 Hz frequencies). The patched cell was continuously perfused by control or drug‐supplemented bath solution. To limit errors due to rundown and voltage‐dependence shifts, no more than two drug concentrations were tested on each cell. The I DRUG/I CTRL ratio (mean±S.E.M. from at least 3 cells) was plotted against drug concentration.
The half‐maximum inhibitory concentration (IC50) and slope factor (nH) are given with the standard error of the fit.

P-gp = experiment: Apparent permeability across Caco-2 monolayer (BA and AB); type: in vitro ADME; details: human, pH 7.4; ratio of Papp BA to Papp AB
Method: as §1, §2

HeLa cells [4] = experiment: ROS production by DCF staining, flow cytometry; type: cell-based, human
Method: (§3) Cell culture. Cervical cancer cell lines (HeLa) were cultured in Dulbecco's modified eagle medium (DMEM) supplemented with 10 % fetal bovine serum (FBS), 1 % glutamine, and 1 % penicillin/streptomycin (all purchased from Euroclone, Italy) in a humidified incubator at 37 °C and 5 % CO2 and 95 % relative humidity.
(§4) Flow cytometry analysis. In order to detect ROS production after drugs treatment,[66, 67] cells at 3×10^5 cells were seeded in 6‐well plates in DMEM with 10 % FBS and cultured overnight. The following day, cells were washed twice with PBS and kept in DMEM without FBS for 2 h. […] Antibiotics were omitted during pharmacological compound assays. After incubation period, cells were washed twice with HBSS, and stained with 5 μM of 2′,7′‐dichorofluorescein (DCFA‐DA) and dihydrorhodamine (DHR) (Thermo Fischer Scientific, Italy) for 30 min in dark. After washing, cells were resuspended in HBSS and analyzed using an Attune Acoustic Focusing Cytometer (Thermo Fisher Scientific) equipped with a 488 nm laser. Thereafter, DCFA‐DA stained cells were co‐stained with 1 μg/mL of 7‐aminoactinomycin D (7‐AAD) (Thermo Fischer Scientific, Italy), incubated on ice for 45 min in dark in order to asses viable and non‐viable cells, and then flow cytometry analysis was carried out.

HeLa cells [5] = experiment: Cell viability by 7-AAD co-staining, flow cytometry; type: cell-based, human; details: 1 and 50 μM, 24 h
Method: as §3, §4

HeLa cells [6] = experiment: Mitochondrial ROS production by DHR staining, flow cytometry; type: cell-based, human; details: 50 μM, compared with 13 a
Method: as §3, §4

[7] = 0.1 Hz stimulation, read-out: Tonic Block IC50 at 0.1 Hz
[8] = 10 Hz stimulation, read-out: Phasic Block IC50 at 10 Hz

SMILES: Cc1cccc(C)c1NC(=O)CC(C)NCc1ccc2ccccc2c1 (stereo not drawn) (as salt: hydrochloride) [13 b, N‐(2,6‐Dimethylphenyl)‐3‐[(naphthalen‐2‐ylmethyl)amino]butanamide]
- melting point: 199 to 201 °C

SMILES: Cc1cccc(C)c1OCCC(C)NCc1cccc2ccccc12 (stereo not drawn) (as salt: hydrochloride) [17 a, N‐[(Naphthalen‐1‐yl)methyl]‐4‐[(2,6‐dimethyl)phenoxy]butan‐2‐amine]
- melting point: 183 to 184 °C

SMILES: Cc1cccc(C)c1OCCC(C)NCc1ccc2ccccc2c1 (stereo not drawn) (as salt: hydrochloride) [17 b, N‐[(Naphthalen‐2‐yl)methyl]‐4‐[(2,6‐dimethyl)phenoxy]butan‐2‐amine]
- melting point: 178 to 179 °C

SMILES: Cc1cccc(C)c1NC(=O)CC(C)NCc1cccc2ccccc12 (stereo not drawn) [13 a, N‐(2,6‐Dimethylphenyl)‐3‐[(naphthalen‐1‐ylmethyl)amino]butanamide]
- Papp A→B at 120 min, 100 µM [1]: 56.6 ×10⁻⁶ cm/s
- Papp B→A at 120 min, 100 µM [1]: 223 ×10⁻⁶ cm/s
- nH (slope factor), tonic block (hNav1.4 [2]; 0.1 Hz stimulation): 1.3±0.1
- nH (slope factor), phasic block (hNav1.4 [2]; 10 Hz stimulation): 0.8±0.1

SMILES: Cc1cccc(C)c1NC(=O)CC(C)NCc1ccc2ccccc2c1 (stereo not drawn) [13 b, N‐(2,6‐Dimethylphenyl)‐3‐[(naphthalen‐2‐ylmethyl)amino]butanamide]
- nH (slope factor), tonic block (hNav1.4 [3]; 0.1 Hz stimulation): 1.1±0.1
- IC50 (hNav1.4 [3]; [7]): 147 ± 12 µM
- nH (slope factor), phasic block (hNav1.4 [3]; 10 Hz stimulation): 0.8±0.1
- IC50 (hNav1.4 [3]; [8]): 14 ± 1.8 µM
- TB/PB (ratio IC50 tonic block/IC50 phasic block) (hNav1.4 [3]): 10.5
- Papp A→B at 120 min, 100 µM [1]: 43.8 ×10⁻⁶ cm/s
- Papp B→A at 120 min, 100 µM [1]: 216 ×10⁻⁶ cm/s
- efflux ratio at 120 min, 100 µM (P-gp): 4.9

SMILES: Cc1cccc(C)c1OCCC(C)NCc1cccc2ccccc12 (stereo not drawn) [17 a, N‐[(Naphthalen‐1‐yl)methyl]‐4‐[(2,6‐dimethyl)phenoxy]butan‐2‐amine]
- nH (slope factor), tonic block (hNav1.4 [3]; 0.1 Hz stimulation): 1.2±0.2
- IC50 (hNav1.4 [3]; [7]): 1080 ± 150 µM
- nH (slope factor), phasic block (hNav1.4 [3]; 10 Hz stimulation): 0.8±0.1
- IC50 (hNav1.4 [3]; [8]): 57 ± 8 µM
- fold higher IC50 value at 10 Hz than To042 (hNav1.4 [3]; 10 Hz, relative to To042): 6 fold
- TB/PB (ratio IC50 tonic block/IC50 phasic block) (hNav1.4 [3]): 18.9
- Papp A→B at 120 min, 100 µM [1]: 25.9 ×10⁻⁶ cm/s
- Papp B→A at 120 min, 100 µM [1]: 180 ×10⁻⁶ cm/s
- efflux ratio at 120 min, 100 µM (P-gp): 7.1
- percentage of ROS producing cells related to untreated cells (% DCF (+) cells) (HeLa cells [4]; 1 μM, 6 h exposure): no significant effects
- percentage of ROS producing cells related to untreated cells (% DCF (+) cells) (HeLa cells [4]; 50 μM, 6 h exposure): significant cytoprotective effect
- ROS production related to untreated cells (DCF fluorescence median) (HeLa cells [4]; 50 μM, 24 h exposure): ~3 fold
- percentage of ROS producing cells related to untreated cells (% DCF (+) cells) (HeLa cells [4]; 24 h exposure, regardless of concentrations (1 and 50 μM)): prominent cytoprotective effect
- cellular viability (7-AAD positive cells untreated related) (HeLa cells [5]): not affected
- mitochondrial ROS levels (DHR) (HeLa cells [6]): lower ROS levels
- percentage of mitochondrial ROS producing cells (DHR) (HeLa cells [6]): lower percentage of ROS producing cells

SMILES: Cc1cccc(C)c1OCCC(C)NCc1ccc2ccccc2c1 (stereo not drawn) [17 b, N‐[(Naphthalen‐2‐yl)methyl]‐4‐[(2,6‐dimethyl)phenoxy]butan‐2‐amine]
- nH (slope factor), tonic block (hNav1.4 [3]; 0.1 Hz stimulation): 0.9±0.1
- IC50 (hNav1.4 [3]; [7]): 88 ± 11 µM
- nH (slope factor), phasic block (hNav1.4 [3]; 10 Hz stimulation): 1.1±0.1
- IC50 (hNav1.4 [3]; [8]): 8.8 ± 0.6 µM
- TB/PB (ratio IC50 tonic block/IC50 phasic block) (hNav1.4 [3]): 10
- Papp A→B at 120 min, 100 µM [1]: 49.6 ×10⁻⁶ cm/s
- Papp B→A at 120 min, 100 µM [1]: 199 ×10⁻⁶ cm/s
- efflux ratio at 120 min, 100 µM (P-gp): 4

SMILES: Cc1cccc(C)c1OCC(C)N (stereo not drawn) [mexiletine]
- nH (slope factor), tonic block (hNav1.4 [2]; 0.1 Hz stimulation): 1.2±0.1
- IC50 (hNav1.4 [2]; [7]): 256 ± 25 µM
- nH (slope factor), phasic block (hNav1.4 [2]; 10 Hz stimulation): 0.9±0.1
- IC50 (hNav1.4 [2]; [8]): 46 ± 5 µM

SMILES: Cc1cccc(C)c1NC(=O)C(C)N (stereo not drawn) [tocainide]
- Papp A→B at 120 min, 100 µM [1]: 49.6 ×10⁻⁶ cm/s
- Papp B→A at 120 min, 100 µM [1]: 196 ×10⁻⁶ cm/s
- efflux ratio at 120 min, 100 µM (P-gp): 3.9
- nH (slope factor), tonic block (hNav1.4 [2]; 0.1 Hz stimulation): 1.0±0.1
- IC50 (hNav1.4 [2]; [7]): 700 ± 70 µM
- nH (slope factor), phasic block (hNav1.4 [2]; 10 Hz stimulation): 1.1±0.2
- IC50 (hNav1.4 [2]; [8]): 182 ± 24 µM
- TB/PB (ratio IC50 tonic block/IC50 phasic block) (hNav1.4 [2]; use-dependence): 3.8

Source: PMC9293070, “Bioisosteric Modification of To042: Synthesis and Evaluation of Promising Use‐Dependent Inhibitors of Voltage‐Gated Sodium Channels” (Chemmedchem, 2021)
